# Assay results as given in ChEMBL document CHEMBL5096167, “Recent advances in development of hetero-bivalent kinase inhibitors” (Eur J Med Chem, 2021).
# Tests used:
# [1] = biological target: Proto-oncogene tyrosine-protein kinase Src (Gallus gallus, UniProt P00523); experiment: Binding affinity to chicken 6-His tagged c-Src expressed in Escherichia coli Bl21 (DE3) assessed as dissociation constant
# [2] = biological target: Mitogen-activated protein kinase 7 (Mus musculus, UniProt Q9WVS8); experiment: Activation of ERK5 in MEF cells; type: cell-based
# [3] = biological target: Proto-oncogene tyrosine-protein kinase Src (Homo sapiens, UniProt P12931); experiment: Irreversible inhibition of wild type c-Src (unknown origin) assessed as inhibition constant by fluorimetric assay
# Proto-oncogene tyrosine-protein kinase Src (Homo sapiens, UniProt P12931), sequence (P12931 2-536 limits assumed): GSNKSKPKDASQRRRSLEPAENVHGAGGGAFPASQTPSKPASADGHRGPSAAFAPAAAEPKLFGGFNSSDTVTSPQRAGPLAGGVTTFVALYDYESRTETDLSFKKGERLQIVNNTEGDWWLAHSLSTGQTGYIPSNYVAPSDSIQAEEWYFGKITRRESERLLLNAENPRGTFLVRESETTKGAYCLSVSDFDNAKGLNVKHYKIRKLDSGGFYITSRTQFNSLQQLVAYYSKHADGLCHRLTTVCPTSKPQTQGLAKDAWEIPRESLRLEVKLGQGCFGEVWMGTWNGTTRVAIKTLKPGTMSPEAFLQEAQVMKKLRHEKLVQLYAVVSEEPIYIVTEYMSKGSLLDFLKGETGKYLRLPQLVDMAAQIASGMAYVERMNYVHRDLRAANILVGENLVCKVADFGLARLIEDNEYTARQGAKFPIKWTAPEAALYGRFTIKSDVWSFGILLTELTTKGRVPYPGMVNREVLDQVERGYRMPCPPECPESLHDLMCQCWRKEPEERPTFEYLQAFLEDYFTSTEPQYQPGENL
# Mitogen-activated protein kinase 7, sequence (Q9WVS8 whole entry): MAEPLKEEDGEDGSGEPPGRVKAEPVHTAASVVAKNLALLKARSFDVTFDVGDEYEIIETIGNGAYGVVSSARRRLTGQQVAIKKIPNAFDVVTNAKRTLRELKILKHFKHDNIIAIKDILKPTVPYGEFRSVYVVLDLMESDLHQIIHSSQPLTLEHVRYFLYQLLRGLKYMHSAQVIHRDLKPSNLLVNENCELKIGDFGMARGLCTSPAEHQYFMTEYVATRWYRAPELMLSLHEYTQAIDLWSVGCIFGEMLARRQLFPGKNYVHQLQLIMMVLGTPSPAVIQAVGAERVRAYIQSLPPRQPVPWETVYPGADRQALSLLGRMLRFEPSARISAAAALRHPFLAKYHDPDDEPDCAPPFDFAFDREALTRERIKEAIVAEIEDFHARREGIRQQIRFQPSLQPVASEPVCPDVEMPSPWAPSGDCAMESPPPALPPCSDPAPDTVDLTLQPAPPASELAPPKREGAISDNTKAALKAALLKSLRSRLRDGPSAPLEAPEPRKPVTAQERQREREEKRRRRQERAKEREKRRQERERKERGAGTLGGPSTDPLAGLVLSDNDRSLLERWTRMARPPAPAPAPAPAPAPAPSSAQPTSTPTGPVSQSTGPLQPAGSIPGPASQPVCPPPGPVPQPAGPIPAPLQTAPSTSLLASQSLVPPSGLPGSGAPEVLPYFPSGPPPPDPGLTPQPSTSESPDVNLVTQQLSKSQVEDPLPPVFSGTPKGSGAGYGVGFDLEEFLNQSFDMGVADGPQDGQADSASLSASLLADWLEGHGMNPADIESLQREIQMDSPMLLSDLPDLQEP
structure (smiles),measurement,setting,value
CCC(C)[C@@H](NC(=O)[C@@H](CCC(=O)O)NC(=O)[C@@H](CCC(=O)O)NC(=O)[C@@H](CCC(=O)O)NC(C)=O)C(=O)N[C@H](Cc1ccc(NC(=O)CCCCCn2cc(-c3ccc(-n4nc(-c5ccc(Cl)cc5)c5c(N)ncnc54)cc3)nn2)cc1)C(=O)NCC(=O)N[C@H](CCC(=O)O)C(=O)N[C@H](Cc1ccccc1)C(=O)N[C@H](CCC(=O)O)C(=O)N[C@H](C)C(N)=O (stereo partly drawn),Kd,[1],0.28 nM
CN1CCN(c2cnc3c(C4CCN(C(=O)c5ccc(OC(F)(F)F)cc5N)CC4)ncnc3c2)CC1 [BAY-885],IC50,[2],120 nM
O=C(CCS)Nc1cccc(Nc2nccc(Nc3cc(C4CC4)[nH]n3)n2)c1,Ki,[3],20 nM
